Measured values taken from paper PMC5589751, “Synthesis, high-throughput screening and pharmacological characterization of β–lactam derivatives as TRPM8 antagonists” (Scientific Reports, 2017).

Key:
TRPV1 = TRPV1 (Rattus norvegicus, UniProt O35433); assay: Ca2+ microfluorography (Fluo-4 NW), capsaicin-induced Ca2+ signal in SH-SY5Y-TRPV1 cells; format: cell-based; details: 50 µM compound; agonist 10 µM capsaicin; SH-SY5Y-TRPV1 cells
Experimental: All compounds were tested at two different concentrations (50 and 5 µM) on TRPM8 and TRPV1 channels stably expressed in HEK and SH-SY5Y cell lines, respectively. The agonist induced intracellular Ca^2+ signals were measured using a fluorescent Ca^2+ indicator, in the absence and in the presence of test compounds. […] The obtained results were compared to those of 68 (AMTB, TRPM8 antagonist) and ruthenium red (TRPV1 antagonist). The IC50 values for the assay on TRPM8 were also calculated.
For fluorescence assays, cells expressing TRP channels (SH-SY5Y-TRPV1 and HEKCR1-TRPM8) were seeded in 96-well plates (Corning Incorporated, Corning, NY) at a cell density of 40,000 cells 2 days before treatment. The day of treatment the medium was replaced with 100 µL of the dye loading solution Fluo-4 NW supplemented with probenecid 2.5 mM. Then the compounds dissolved in DMSO were added at the desired concentrations and the plate(s) were incubated at 37 °C in a humidified atmosphere of 5% CO2 for 60 minutes.
The fluorescence was measured using instrument settings appropriate for excitation at 485 nm and emission at 535 nm (POLARstar Omega BMG LABtech). […] The corresponding antagonist
(10 µM Ruthenium Red forTRPV1 and 10 µM 68 for TRPM8) was added for the blockade. The changes in fluorescence intensity were recorded during 15 cycles more. […] The blocking percentage was calculated as follow (Eq. 1):1 %TRPBlockedResponse=(1−Fo−Fi/FCo−FCi)∗100 where Fo is the fluorescence after the addition of menthol in the presence of the compound, Fi is the fluorescence before the addition of menthol in the presence of the compound, FCo is the fluorescence after the addition of menthol in the absence of the compound, FCi is the fluorescence before the addition of menthol in the absence of the compound. To guarantee that our results were useful we only used assays with a Z-factor higher than 0.5.
The statistical Z-factor to determine the quality of the HTS experiment as was calculated using the equation 2:2 Z‐factor=1−3∗(SDmax+SDmin)/Meanmax−Meanmin where: Meanmax is the mean of the maximum fluorescence in the presence of agonist, SDmax is the standard deviation of the maximum fluorescence in the presence of agonists, Meanmin is the mean of the maximum fluorescence in the presence of agonist and antagonist and SDmin is the standard deviation of the maximum fluorescence in the presence of agonist and antagonist.

Kinetic solubility = format: physicochemical
HEK-CR1 cells = assay: MTT-based assay of cytotoxicity; format: cell-based; details: 24 hours incubation; three concentrations
Experimental: Figure 2S. Effect of derivative 41 and 45 on MTT-based assay of cytotoxicity in HEK-CR1 cells.
A) Cell survival after 24 hours incubation at three concentrations of derivative 41 or B) derivative 45.
Each value is expressed as mean ± SEM. n ≥ 4, ANOVA with Bonferroni post hoc test (*** p < 0.001).
Cell viability assay (MTT)
Cell viability was assessed by the detection of mitochondrial activity in living cells using a modified colorimetric analysis of Blue Tetrazolium Bromide Thiazolyl (MTT). Briefly, HEK293 cells (2 × 10^4 cells/well) were subcultured in 96-well plates, grown until 80–90% confluence, and incubated with increasing concentrations of testing compounds for 24 h. Following treatment, 10 μL of MTT solution (5 mg/mL in phosphate buffered saline) was added to each well and further incubated for 4 h at 37 °C. Subsequently, 100 μL of DMSO was added to each well to dissolve any deposited formazan resulting from cleavage and reduction of MTT by active mitochondrial dehydrogenases. The optical density of each well was measured at 540 nm with a microplate reader (Polastar BMG LABTECH, […]
(1 picture or pasted object on this page, not shown here)

Chain of TRPV1 (O35433 whole entry): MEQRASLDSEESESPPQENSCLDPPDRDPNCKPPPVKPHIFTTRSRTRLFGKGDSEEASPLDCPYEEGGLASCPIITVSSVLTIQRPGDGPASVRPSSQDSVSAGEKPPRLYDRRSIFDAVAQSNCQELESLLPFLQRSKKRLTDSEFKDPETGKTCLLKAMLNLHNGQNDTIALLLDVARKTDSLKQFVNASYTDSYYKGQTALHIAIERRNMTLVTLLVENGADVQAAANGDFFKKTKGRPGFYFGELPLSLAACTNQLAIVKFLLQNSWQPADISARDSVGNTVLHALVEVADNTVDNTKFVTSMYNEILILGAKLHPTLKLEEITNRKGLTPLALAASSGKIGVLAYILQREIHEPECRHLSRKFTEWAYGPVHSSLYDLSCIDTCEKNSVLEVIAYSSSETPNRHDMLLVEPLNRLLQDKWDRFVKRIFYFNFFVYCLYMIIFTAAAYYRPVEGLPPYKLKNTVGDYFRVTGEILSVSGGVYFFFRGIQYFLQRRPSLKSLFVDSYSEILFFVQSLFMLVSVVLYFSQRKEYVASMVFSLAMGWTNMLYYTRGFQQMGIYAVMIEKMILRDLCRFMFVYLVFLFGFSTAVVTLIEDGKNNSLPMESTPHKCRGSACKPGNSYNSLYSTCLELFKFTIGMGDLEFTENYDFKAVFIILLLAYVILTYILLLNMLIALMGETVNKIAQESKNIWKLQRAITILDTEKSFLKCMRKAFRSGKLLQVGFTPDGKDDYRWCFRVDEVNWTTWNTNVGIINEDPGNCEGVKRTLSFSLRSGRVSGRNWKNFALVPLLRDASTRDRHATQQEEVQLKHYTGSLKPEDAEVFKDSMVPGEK

Row | SMILES | % Block TRPV1 50 µM (TRPV1) [%] | Kinetic solubility (Kinetic solubility; 1% DMSO) [µM] | Kinetic solubility (Kinetic solubility; 5% DMSO) [µM] | cytotoxicity in the MTT assay (HEK-CR1 cells)
1 | CC(C)(C)OC(=O)N[C@@H](CCN1C(=O)CC1(Cc1ccccc1)C(=O)OCc1ccccc1)C(=O)OCc1ccccc1 (stereo partly drawn) [Compound 41, 4R,S-Benzyl-4-benzyloxycarbonyl-1-[(3′S-benzyloxycarbonyl-3-tert-butoxycarbonylamino-3′-benzyloxycarbonyl)prop-1′-yl]-2-oxoazetidine] | 38.3 ± 17.9 | < 10 | < 10 | did not display apparent cytotoxicity
2 | CC1C(=O)N(CC[C@H](NC(=O)OC(C)(C)C)C(=O)OCc2ccccc2)C1(Cc1ccccc1)C(=O)OCc1ccccc1 (stereo partly drawn) [Compound 45, 4R,S-Benzyl-4-benzyloxycarbonyl-1-[(3′S-benzyloxycarbonyl-3′-tert-butoxycarbonylamino)prop-1′-yl]-(3R,S)-methyl-2-oxoazetidine] | 31.8 ± 6.5 |  |  | did not display apparent cytotoxicity
